Experimental data taken from ChEMBL document CHEMBL1201862, “PubChem BioAssay data set” (2004).
Activity calls are given as the source filed them.

Tests used:
HeLa = test: Cytotoxicity counterscreen assay for transcriptional activators of heat shock protein 70 (Hsp70). [Related pubchem assays: 1203, 1252 ]; format: functional; settings: Homo sapiens
[1] = molecular target: DNA damage-inducible transcript 3 protein (Mus musculus, UniProt P35639); format: functional, Cricetulus griseus
X-box-binding protein 1 = X-box-binding protein 1 (Homo sapiens, UniProt P17861); format: functional, Cricetulus griseus;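 also: confirmatory dose-response counter-screen serving a CHOP assay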
[2] = molecular target: Heat shock protein HSP 90-alpha (Homo sapiens, UniProt P07900); format: functional, organism-based
BJ = test: growth inhibition of engineered Ras-driven BJ cells – cell-based, alamar blue fluorescence, cherrypicked samples, dose response (AID 2631); format: functional; settings: Homo sapiens;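 also: confirmatory dose-response assay in RAS-dependent BJ fibroblasts engineered with TERT, LT and ST, with cytotoxicity read by fluorescence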
[3] = molecular target: T1, Beta-adrenergic receptor kinase 1 (Homo sapiens, UniProt P25098); test: blockers of aptamer binding to GRK2 – biochemical, flow cytometry beads, FAM-aptamer, powder set 1, dose response (AID 588720)
[4] = molecular target: T2, Heat shock factor protein 1 (Mus musculus, UniProt P38532); test: decrease of HSF1-responsive luciferase luminescence – cell-based, NIH3T3, dose retest, confirmation (AID 2382); format: functional;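 also: NIH3T3 fibroblasts with HSF1-driven luciferase reporter stressed by proteasome inhibitor MG132; luminescence from HSF1-driven luciferase expression after 8 hours of MG132 stress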
T2 sequence (P38532 whole entry): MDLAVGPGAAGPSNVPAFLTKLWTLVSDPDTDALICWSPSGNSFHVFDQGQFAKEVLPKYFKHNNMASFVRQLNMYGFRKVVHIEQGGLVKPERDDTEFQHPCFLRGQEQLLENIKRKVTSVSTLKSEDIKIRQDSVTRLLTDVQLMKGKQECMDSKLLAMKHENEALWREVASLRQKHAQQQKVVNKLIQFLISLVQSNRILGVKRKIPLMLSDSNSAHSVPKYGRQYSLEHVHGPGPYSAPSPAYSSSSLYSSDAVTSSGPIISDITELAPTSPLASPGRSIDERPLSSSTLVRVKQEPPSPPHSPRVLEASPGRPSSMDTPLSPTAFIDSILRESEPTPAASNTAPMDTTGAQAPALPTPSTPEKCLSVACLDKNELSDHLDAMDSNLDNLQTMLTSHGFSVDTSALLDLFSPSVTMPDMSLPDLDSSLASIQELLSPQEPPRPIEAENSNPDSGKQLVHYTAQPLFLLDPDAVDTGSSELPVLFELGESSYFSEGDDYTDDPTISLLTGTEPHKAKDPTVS

[5] = molecular target: Peroxisome proliferator-activated receptor gamma/Nuclear receptor corepressor 2 (Homo sapiens, UniProt P37231+Q9Y618); test: Counterscreen for NR2E3 inverse agonists: TR-FRET-based biochemical high throughput dose response assay to identify inverse agonists of the interaction between peroxisome proliferator-activated receptor gamma (PPARg) and nuclear receptor co-repressor 2 (NCOR2).; format: functional
[6] = molecular target: Photoreceptor-specific nuclear receptor (Homo sapiens, UniProt Q9Y5X4); test: ligands suppressing NR2E3 nuclear receptor activity – biochemical, TR-FRET, dose response (AID 463256); format: functional
[7] = molecular target: T1, Beta-adrenergic receptor kinase 1; test: aptamer displacement from bead-bound GRK2 – biochemical, cherry pick 1, bead flow cytometry, dose response (AID 504500)
[8] = molecular target: T3, Carboxy-terminal domain RNA polymerase II polypeptide A small phosphatase 1 (Homo sapiens, UniProt Q9GZU7); test: CTDSP1 inhibitors, concentration-response, biochemical, absorbance readout, ultra-high-throughput screen actives (AID 540297); format: functional
T3 sequence (Q9GZU7 whole entry): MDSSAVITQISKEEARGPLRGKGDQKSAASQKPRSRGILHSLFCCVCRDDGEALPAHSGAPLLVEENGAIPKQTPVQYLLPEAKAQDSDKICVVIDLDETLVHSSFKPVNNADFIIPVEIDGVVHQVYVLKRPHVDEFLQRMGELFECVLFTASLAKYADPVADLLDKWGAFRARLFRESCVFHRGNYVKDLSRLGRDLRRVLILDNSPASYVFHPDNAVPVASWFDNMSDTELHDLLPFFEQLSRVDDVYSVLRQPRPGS

[9] = microbe, parasite or virus in culture; format: functional; settings: Mycobacterium tuberculosis
A-375 = test: MITF: Counter assay: A375 proliferation Measured in Cell-Based System Using Plate Reader - 2084-03_Inhibitor_Dose_DryPowder_Activity. [Related pubchem assays (depositor defined):AID488944]; format: functional; settings: Homo sapiens
[10] = molecular target: Hepatocyte nuclear factor 4-alpha (Homo sapiens, UniProt P41235); format: functional, cell-based;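 also: biochemical luminescence-based dose-response counterscreen measuring inhibition of HNF4 dimerization, run alongside a screen for blockers of ABHD5–perilipin-5 interaction; split luciferase complementation of HNF4 fusion proteins in cell lysate measuring dimerization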
Beta-galactosidase = Beta-galactosidase (Escherichia coli, UniProt Q8VNN2); test: PubChem AID 485352; format: functional
[11] = molecular target: Type-1 angiotensin II receptor (Homo sapiens, UniProt P30556); test: antagonism of angiotensin II type 1 receptor – cell-based, uHTS hits, selectivity assay for APJ receptor antagonist project, dose response (AID 463214); format: functional;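 also: antagonist potency against angiotensin II stimulated AT1 response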
Jurkat [12] = test: blockers of NF-kB activation in T cells – Jurkat, luciferase reporter, luminescence, B- and T-cell, dose response (AID 489004); format: functional, cell-based; settings: Homo sapiens;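 also: NF-kB luciferase reporter Jurkat cells stimulated with PMA plus ionomycin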
[13] = HEK-293T viability loss, compound-treated – cell-based, uHTS hits, cytotoxicity control for B/T-cell NF-kB inhibitor project, dose response (AID 489019); format: functional;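 also: IC50 reflects cytotoxicity as loss of cell viability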
INS1 = test: INS-1E survival protection against cytokine death – cell-based, luminescence, retest, dose response (AID 449756); format: functional; settings: Rattus norvegicus;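 also: cell death triggered by IL-1 beta plus TNF-alpha plus IFN-gamma mixture; protective hits raise ATP signal compared with cytokine alone wells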
[14] = molecular target: Potassium voltage-gated channel subfamily KQT member 2 (Rattus norvegicus, UniProt O88943); test: rat KCNQ2 current potentiators – automated patch clamp, KCNQ2-CHO cells, SAR follow-up (AID 493113); format: functional
Jurkat [15] = test: SAR Analysis of small molecule inhibitors of […] specific antigen receptor-induced NF-kB activation in a Jurkat cell line using a luminescence assay - Set 3. [Related pubchem assays (depositor defined):AID435022, AID435025, AID465]; format: functional, cell-based; settings: Homo sapiens
HEK293 [16] = test: SAR Analysis of small molecule inhibitors of B-cell specific antigen receptor-induced NF-kB activation in a HEK-293T cell line using a luminescence assay - Set 2. [Related pubchem assays (depositor defined):AID435022, AID435025, AID489021]; format: functional, cell-based; settings: Homo sapiens
HEK293 [17] = test: HEK293T cell viability loss, resazurin readout – resazurin fluorescence, cytotoxicity control for NF-kB activator project, SAR follow-up (AID 493251); format: functional, cell-based; settings: Homo sapiens
[18] = Luminescence Cell-Based Dose Retest to Confirm Inhibitors of Cancer Stem Cells. [Related pubchem assays (depositor defined):AID2717, AID2721]; format: functional; settings: Homo sapiens
[19] = viability loss of HMLE_sh_eGFP cells – cell-based, luminescence, counter-screen for HMLE_sh_ECad selective toxicity project, dose response (AID 463074); format: functional, Homo sapiens;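 also: HMLE human mammary epithelial cells expressing control shRNA against eGFP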
Cytochrome P450 2D6 = Cytochrome P450 2D6 (Homo sapiens, UniProt P10635);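 also: CYP2D6 member of a cytochrome P450 panel assay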
Cytochrome P450 1A2 = molecular target: T4, Cytochrome P450 1A2 (Homo sapiens, UniProt P05177);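 also: PubChem cytochrome P450 panel assay, CYP1A2 panel member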
T4 sequence (P05177 whole entry): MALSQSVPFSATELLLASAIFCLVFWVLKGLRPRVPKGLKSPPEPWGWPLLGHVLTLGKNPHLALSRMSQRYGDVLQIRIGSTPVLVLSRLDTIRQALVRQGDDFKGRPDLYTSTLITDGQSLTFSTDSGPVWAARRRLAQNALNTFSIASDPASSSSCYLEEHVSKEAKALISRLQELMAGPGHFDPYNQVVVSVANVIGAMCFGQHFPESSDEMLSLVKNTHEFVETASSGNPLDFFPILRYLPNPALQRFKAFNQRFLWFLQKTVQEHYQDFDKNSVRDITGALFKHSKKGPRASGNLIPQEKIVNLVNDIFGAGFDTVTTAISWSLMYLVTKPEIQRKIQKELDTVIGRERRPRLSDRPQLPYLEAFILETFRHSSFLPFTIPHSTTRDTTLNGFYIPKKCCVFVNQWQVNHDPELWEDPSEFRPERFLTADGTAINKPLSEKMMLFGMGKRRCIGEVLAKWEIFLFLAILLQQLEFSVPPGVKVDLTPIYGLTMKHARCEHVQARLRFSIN

[20] = molecular target: Voltage-gated inwardly rectifying potassium channel KCNH2 (Homo sapiens, UniProt Q12809); settings: Potency;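 also: confirmatory quantitative high-throughput screen measuring inhibition of hERG channel activity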

T1 sequence (P25098 whole entry): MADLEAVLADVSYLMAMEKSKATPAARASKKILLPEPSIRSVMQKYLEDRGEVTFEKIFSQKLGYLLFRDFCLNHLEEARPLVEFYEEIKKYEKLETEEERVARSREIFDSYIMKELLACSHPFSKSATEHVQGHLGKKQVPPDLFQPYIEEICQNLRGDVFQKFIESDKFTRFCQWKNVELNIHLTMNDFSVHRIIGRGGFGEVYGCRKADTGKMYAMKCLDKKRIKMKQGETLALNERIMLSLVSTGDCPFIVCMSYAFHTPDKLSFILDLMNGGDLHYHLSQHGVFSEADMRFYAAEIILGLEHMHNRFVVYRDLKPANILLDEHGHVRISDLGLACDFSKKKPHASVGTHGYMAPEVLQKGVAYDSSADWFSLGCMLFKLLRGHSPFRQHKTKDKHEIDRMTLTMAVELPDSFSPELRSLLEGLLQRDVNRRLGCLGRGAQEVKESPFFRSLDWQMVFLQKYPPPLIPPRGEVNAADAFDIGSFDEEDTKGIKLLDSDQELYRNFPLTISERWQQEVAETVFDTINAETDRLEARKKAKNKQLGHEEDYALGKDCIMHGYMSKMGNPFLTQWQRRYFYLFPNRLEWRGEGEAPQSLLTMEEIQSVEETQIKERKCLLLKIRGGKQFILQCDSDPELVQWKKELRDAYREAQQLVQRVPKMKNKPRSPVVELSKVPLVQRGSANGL
Type-1 angiotensin II receptor, sequence (P30556 whole entry): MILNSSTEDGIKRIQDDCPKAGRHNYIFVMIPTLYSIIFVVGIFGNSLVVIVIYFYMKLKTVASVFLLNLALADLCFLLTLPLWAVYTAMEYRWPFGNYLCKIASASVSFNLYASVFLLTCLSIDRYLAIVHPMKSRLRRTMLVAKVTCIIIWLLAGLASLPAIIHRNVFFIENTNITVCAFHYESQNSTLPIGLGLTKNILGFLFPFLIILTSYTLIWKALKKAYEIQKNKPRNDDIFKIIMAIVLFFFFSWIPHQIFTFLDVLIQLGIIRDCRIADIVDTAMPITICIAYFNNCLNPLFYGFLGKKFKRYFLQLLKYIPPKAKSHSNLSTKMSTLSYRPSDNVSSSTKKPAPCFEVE
Photoreceptor-specific nuclear receptor, sequence (Q9Y5X4 whole entry): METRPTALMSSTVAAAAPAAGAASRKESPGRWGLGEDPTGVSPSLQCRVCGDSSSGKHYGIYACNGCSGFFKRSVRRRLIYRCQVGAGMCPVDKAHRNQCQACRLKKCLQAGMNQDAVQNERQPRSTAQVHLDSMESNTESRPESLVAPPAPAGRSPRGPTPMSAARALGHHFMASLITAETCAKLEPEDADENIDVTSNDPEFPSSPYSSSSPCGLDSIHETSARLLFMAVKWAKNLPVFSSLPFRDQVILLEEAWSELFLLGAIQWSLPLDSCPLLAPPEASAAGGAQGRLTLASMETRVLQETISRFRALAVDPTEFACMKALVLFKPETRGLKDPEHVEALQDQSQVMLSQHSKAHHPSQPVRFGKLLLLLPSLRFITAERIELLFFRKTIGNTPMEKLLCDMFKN
Potassium voltage-gated channel subfamily KQT member 2, sequence (O88943 whole entry): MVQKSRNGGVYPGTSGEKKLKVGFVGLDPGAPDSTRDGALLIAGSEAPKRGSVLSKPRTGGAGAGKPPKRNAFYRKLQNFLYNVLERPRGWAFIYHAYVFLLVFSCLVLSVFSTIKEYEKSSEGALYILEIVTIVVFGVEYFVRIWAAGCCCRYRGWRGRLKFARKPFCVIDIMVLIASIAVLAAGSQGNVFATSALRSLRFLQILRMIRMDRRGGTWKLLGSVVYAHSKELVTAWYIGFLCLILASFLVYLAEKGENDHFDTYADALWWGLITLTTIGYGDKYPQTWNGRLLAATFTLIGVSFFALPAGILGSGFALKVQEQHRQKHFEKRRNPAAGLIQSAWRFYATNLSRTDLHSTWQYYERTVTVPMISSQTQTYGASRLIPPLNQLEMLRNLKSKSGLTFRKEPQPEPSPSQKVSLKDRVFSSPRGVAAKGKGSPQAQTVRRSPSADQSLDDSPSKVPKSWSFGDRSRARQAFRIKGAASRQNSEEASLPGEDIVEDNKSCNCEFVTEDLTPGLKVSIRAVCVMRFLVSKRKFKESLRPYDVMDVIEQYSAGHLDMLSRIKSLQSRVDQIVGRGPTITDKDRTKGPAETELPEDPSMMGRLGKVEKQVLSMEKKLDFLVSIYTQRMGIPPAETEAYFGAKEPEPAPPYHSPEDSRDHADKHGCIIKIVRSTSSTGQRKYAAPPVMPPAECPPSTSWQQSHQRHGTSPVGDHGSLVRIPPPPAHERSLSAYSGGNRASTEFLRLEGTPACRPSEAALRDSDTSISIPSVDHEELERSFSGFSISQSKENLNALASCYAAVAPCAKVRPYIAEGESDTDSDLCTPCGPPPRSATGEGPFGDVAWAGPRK
DNA damage-inducible transcript 3 protein, sequence (P35639 whole entry): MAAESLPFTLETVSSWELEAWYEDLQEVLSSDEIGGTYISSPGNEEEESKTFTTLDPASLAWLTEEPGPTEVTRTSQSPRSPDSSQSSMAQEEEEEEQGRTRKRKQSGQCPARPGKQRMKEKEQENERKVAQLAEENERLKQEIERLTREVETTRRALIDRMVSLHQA
Beta-galactosidase, sequence (Q8VNN2 whole entry): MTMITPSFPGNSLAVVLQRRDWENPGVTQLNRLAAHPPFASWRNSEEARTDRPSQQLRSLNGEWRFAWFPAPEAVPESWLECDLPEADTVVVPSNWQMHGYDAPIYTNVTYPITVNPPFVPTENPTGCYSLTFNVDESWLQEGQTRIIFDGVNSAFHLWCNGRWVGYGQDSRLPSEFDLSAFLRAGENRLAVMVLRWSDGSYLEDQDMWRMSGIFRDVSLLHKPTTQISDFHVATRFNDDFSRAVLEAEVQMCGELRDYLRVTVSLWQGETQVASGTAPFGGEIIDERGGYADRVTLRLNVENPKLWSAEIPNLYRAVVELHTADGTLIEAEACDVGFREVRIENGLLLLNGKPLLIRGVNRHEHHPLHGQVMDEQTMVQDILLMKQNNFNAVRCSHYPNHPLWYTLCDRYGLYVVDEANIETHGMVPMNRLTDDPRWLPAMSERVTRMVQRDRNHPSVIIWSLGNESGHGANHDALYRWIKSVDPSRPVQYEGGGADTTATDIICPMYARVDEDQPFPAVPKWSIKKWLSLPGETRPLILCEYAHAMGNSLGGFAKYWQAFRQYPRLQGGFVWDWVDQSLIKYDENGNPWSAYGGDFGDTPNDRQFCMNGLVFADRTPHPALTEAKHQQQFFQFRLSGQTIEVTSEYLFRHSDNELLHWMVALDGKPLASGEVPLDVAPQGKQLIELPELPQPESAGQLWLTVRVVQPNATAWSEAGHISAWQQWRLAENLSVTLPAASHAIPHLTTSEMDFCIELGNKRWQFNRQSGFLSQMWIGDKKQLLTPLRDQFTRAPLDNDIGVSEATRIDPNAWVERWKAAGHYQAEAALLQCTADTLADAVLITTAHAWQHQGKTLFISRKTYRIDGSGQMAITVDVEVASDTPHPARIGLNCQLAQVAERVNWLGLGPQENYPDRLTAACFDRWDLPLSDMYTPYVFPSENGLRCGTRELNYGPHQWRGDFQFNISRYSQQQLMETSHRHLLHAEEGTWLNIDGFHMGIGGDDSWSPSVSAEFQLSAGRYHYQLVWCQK
Cytochrome P450 2D6, sequence (P10635 whole entry): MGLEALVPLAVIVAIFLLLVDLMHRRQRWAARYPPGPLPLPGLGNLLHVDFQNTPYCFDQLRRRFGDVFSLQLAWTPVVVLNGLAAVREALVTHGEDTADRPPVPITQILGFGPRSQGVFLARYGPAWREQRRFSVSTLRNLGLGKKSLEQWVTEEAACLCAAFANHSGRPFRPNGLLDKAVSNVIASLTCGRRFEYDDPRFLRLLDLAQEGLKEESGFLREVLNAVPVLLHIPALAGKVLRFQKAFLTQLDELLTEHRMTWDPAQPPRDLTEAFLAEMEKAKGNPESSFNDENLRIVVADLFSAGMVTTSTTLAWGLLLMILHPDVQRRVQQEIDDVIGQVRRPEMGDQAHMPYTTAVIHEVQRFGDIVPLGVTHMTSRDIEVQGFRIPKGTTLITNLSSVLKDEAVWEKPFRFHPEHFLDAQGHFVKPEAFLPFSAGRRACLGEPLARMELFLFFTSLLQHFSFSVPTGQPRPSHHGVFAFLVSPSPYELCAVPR
Hepatocyte nuclear factor 4-alpha, sequence (P41235 whole entry, the tested form may be a part): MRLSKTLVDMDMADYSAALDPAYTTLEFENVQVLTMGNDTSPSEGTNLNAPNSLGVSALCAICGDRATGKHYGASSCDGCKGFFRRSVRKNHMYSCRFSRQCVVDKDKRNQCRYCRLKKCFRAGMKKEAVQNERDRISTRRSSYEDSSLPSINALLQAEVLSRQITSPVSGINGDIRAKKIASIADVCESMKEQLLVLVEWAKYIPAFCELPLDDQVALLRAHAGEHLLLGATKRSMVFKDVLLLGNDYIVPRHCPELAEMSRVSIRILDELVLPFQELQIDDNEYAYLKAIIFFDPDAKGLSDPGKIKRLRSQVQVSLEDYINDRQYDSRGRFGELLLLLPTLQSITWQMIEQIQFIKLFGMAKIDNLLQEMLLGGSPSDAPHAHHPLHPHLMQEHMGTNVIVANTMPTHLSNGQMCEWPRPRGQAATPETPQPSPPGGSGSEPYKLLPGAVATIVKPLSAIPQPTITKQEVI
X-box-binding protein 1, sequence (P17861 whole entry): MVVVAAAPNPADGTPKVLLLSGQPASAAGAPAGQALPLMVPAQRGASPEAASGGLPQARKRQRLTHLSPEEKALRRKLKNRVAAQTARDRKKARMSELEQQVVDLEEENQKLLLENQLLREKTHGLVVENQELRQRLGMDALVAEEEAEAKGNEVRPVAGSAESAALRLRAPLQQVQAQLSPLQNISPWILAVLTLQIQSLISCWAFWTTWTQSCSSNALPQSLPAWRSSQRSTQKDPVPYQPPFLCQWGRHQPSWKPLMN

## O=C1/C(=C/c2ccncc2)CCC/C1=C\c1ccncc1
HeLa
  CC50: > 1.22 µM (not active)
[1]
  Absolute IC50 (CHOP): 10 µM
X-box-binding protein 1
  Absolute IC50 (XBP1): 10 µM
[2]
  AC50: 8.7 µM (active)
BJ
  EC50: 0.474 µM (active)

## O=C(CCS(=O)(=O)c1ccc(Br)s1)Nc1ccccc1Br
[3]
  EC50: 20.9 µM (active)

## CCc1ccccc1NC(=O)CCS(=O)(=O)c1ccc(OC)cc1
[4]
  EC50: > 195 µM (not active)
[5]
  IC50: 16.8 µM (not active)
[6]
  IC50: 13.9 µM (not active)
[7]
  EC50: 17.8 µM (inactive)
[8]
  IC50: 21.1 µM (active)

## COc1ccc(C)c2sc(N(CCN(C)C)C(=O)/C=C/c3cccs3)nc12
[9]
  CC50: 12.7 µM (active)
A-375
  AC50: 43.2 µM (active)
[10]
  IC50: 35.2 µM (inactive)

## Cc1ccc(C(=O)COC(=O)CCC(=O)Nc2ccccc2Cl)cc1[N+](=O)[O-]
Beta-galactosidase
  EC50: > 40 µM (inactive)
[11]
  IC50: 22.9 µM (not active)

## COC1=CC(=O)[C@]2(C=C1OC)OC[C@@H]1Oc3c(ccc4c3C=CC(C)(C)O4)C(=O)[C@@H]12
Jurkat [12]
  IC50: 28.7 µM (inactive)
[13]
  IC50: 23 µM (inactive)
INS1
  AC50: 0.671 µM (active)

## O=C(Nc1ccc(F)cc1F)C1CC2CCC1C2 (stereo not drawn)
[14]
  EC50: 10 µM (active)

## CCOc1ccc(-c2nc(CSCC(=O)NC3CCCC(C)C3C)c(C)o2)cc1 (stereo not drawn)
Jurkat [15]
  IC50: 39.3 µM (inactive)
HEK293 [16]
  IC50: 8.81 µM (active)
HEK293 [17]
  IC50: 38.9 µM (inactive)

## C/C(=N\Nc1cccc(Cl)c1)C1(C)N(O)C(C)(C)C(c2ccco2)=[N+]1[O-] (stereo not drawn)
[18]
  AC50: 1.06 µM (active)
[19]
  AC50: 1.5 µM (inconclusive)

## Nc1nnc(-c2cccc(Cl)c2Cl)c(N)n1 [LAMOTRIGINE]
Cytochrome P450 2D6
  AC50: 6.31 µM (active)
Cytochrome P450 1A2
  AC50: inactive

## CC(=O)CC(C)C [METHYL ISOBUTYL KETONE]
[20]
  AC50: 15.8 µM (inconclusive)
